Reference: ChEMBL document CHEMBL4118035, “Total Synthesis of the Claimed Structure of (±)-Hyptinin and Structural Revision of Natural Hyptinin” (J Nat Prod, 2017)

Assay: Growth inhibition of ATL patient-derived S1T cells after 72 hrs by WST-8 assay
Format: functional
Settings: Homo sapiens

SMILES | IC50 [nM]
COc1cc(C2C3=C(Cc4c2cc2c(c4OC)OCO2)C(=O)OC3)cc(OC)c1OC (configuration not stated) | 7
COc1cc(C2C3=C(Cc4cc5c(cc42)OCO5)C(=O)OC3)cc(OC)c1OC (configuration not stated) | 5.1
